Article PMC8767786 (Nature structural & molecular biology, 2021)

Molecular target: T1, TRPM5 (Danio rerio, UniProt S5UH55)
T1 sequence (S5UH55 1-1165): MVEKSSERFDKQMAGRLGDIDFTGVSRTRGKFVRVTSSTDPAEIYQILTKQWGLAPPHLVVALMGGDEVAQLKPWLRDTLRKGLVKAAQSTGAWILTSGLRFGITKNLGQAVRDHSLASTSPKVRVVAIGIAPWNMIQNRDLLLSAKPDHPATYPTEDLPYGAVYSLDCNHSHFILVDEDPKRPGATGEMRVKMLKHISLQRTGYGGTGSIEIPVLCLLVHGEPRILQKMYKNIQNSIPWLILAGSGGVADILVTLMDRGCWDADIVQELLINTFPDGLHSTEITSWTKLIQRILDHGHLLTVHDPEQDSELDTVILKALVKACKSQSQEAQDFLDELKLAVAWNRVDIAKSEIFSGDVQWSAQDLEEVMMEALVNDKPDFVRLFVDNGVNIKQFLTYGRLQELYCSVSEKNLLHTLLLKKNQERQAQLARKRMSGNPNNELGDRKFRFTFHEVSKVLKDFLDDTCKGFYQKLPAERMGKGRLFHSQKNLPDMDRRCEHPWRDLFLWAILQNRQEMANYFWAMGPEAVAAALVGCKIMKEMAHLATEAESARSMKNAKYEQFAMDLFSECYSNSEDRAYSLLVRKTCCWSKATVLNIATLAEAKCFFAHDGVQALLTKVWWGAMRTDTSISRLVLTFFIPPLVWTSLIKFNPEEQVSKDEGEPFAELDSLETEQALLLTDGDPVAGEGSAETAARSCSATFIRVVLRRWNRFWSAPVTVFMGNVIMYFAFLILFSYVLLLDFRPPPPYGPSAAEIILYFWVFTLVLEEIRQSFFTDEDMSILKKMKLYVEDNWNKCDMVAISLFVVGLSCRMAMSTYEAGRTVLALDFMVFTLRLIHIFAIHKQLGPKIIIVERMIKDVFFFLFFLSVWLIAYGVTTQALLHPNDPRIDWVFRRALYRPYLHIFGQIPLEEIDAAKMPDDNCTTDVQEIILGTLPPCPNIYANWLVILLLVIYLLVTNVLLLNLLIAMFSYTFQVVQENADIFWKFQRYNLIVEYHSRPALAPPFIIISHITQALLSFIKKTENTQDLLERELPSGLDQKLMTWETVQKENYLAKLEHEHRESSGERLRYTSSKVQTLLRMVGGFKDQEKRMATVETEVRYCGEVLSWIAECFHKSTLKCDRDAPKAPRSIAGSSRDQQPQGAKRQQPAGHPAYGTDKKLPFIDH
Test: cryo-EM structure
Type: cell-based

Compound `COc1ccc(C=NNC(=O)Cc2cccc3ccccc23)cc1OC` [NDNA, N’-(3,4-dimethoxybenzylidene)-2-(naphthalen-1-yl)acetohydrazide] has an IC50 of roughly 2.4 nM.
